“And” between values parts separate entries of the source, which are not always exact repeats. Equal values may be shown once.
What was measured:
[1] = target: T1, GHSR-1a (HEK293/GHSR1a cell line) (Homo sapiens, UniProt Q92847); experiment: Ghrelin antagonist potency (IC50) with calcium FLIPR assay, ghrelin 10 nM; type: cell-based; conditions: ghrelin antagonist potency, read-out: IC50 (Activity)
T1 construct: expressed in transfected cells; host or cells: HEK293/GHSR1a cell line
Summary of the method: (§1)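 Fluorescence read-out of intracellular calcium over 2 min. Agonist EC50 came from compound added alone at t=20 sec. Antagonist IC50 came from the reduction of the response to 10 nM ghrelin co-added with compound at t=20 sec. Both were fitted from dose-response data.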

[2] = target: T2, recombinant human ghrelin receptor (HEK293/GRLN) (Homo sapiens, UniProt Q92847); experiment: Ghrelin inverse agonist potency (EC50) with IP-1 (IP-One HTRF) assay; type: cell-based; conditions: inverse agonist potency, IP-1 assay; read-out: EC50 (Activity)
T2 construct: expressed in transfected cells
Summary of the method: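 IP-1 accumulation was measured by HTRF (IP1-d2/Tb-cryptate, 620/665 nm read after 1 hour at room temperature) following 1 hour of compound treatment at 37° C. Cells were HEK293 stably expressing human ghrelin receptor, plated a day earlier on Matrigel. Inverse agonist potency was reported as EC50.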

[3] = Metabolic stability in human liver microsomes; type: in vitro ADME
Procedure: (§2) Metabolic Stability Study
(§3) The metabolic stability of compounds in human, dog, rat and mouse liver microsomes was performed according the experimental conditions reported below:
(§4) • a) Prepare the following 5 stock solutions: • 1. Test compound stock solutions: dilute 10 mM solution of dextromethorphan (Dtr) in DMSO, 10 mM solution of diphenhydramine (DPA) in DMSO, 10 mM solution of omeprazole (Ome) in DMSO, 10 mM solution of verapamil (Ver) in DMSO, and 10 mM of an inverse agonist compound in DMSO to 0.25 mM solution each with acetonitrile/water (70/30). • 2. Buffer: 100 mM potassium phosphate Buffer (PBS) at pH 7.4 • 3. Liver microsomes (20 mg/ml): Thaw in 37° C. water bath quickly • 4. 2000 μL: of NADPH regenerating system (1.3 mM). Place this system on ice before use:
(§5) • 5. […] The test compound concentration in the wells, measured by LC-MS/MS, represents the concentration at time=0. • f) To determine the test compound concentration when t≠0, pre-incubate the NADPH regenerating system and the incubation plate containing the remaining 320 μL of incubation mixture (microsomes protein and test compound) for 5 minutes at 37° C. • g) Start the incubation reaction by adding 80 μL NADPH regenerating system to each well containing the remaining 320 μL incubation mixture. • h) After 10 min., 30 min., and 90 min. of incubation at 37° C., transfer 100 μL of the incubation mixture (microsomes protein, test compound, and NADPH) into the wells of a stop plate pre-filled with 300 μL of the cold quench solution. Shake well. • i) Centrifuge the stop plate at 5000×g for 10 minutes. Collect and dilute the supernatant 3 times with distilled water. Sample and analyze the test compound concentration for all the wells by LC-MS/MS. Animal PK Studies via i.v. (intravenous), p.o. (orally) and s.c. (subcutaneous) administrations

[4] = Metabolic stability in mouse liver microsomes; type: in vitro ADME
Procedure: as §2, §3, §4, §5

[5] = target: T1, GHSR-1a (HEK293/GHSR1a cell line); experiment: Ghrelin agonist potency (EC50) with calcium FLIPR assay; type: cell-based; conditions: HEK293/GHSR1a, read-out: Activity EC50/EMax: EC50 (ghrelin agonist potency)
Summary of the method: as §1

T1 sequence (Q92847 whole entry): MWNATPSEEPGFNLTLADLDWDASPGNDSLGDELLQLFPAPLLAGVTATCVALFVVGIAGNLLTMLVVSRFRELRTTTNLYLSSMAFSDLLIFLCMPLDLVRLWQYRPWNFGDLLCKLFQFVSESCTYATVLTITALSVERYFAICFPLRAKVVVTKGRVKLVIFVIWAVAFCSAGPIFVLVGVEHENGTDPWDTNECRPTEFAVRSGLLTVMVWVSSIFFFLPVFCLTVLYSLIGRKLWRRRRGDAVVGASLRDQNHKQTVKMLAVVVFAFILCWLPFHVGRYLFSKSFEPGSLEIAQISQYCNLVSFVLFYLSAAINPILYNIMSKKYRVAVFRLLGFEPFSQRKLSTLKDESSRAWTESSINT
T2 sequence (Q92847 whole entry): as above

| Structure (SMILES) | IC50 [1] [nM] | EC50 [2] | Metabolic Stability Study H = human [3] | Metabolic Stability Study M = mouse [4] | EC50 [5] [nM] |
| --- | --- | --- | --- | --- | --- |
| Cc1oc(=O)oc1CN1CCc2cc(CS(=O)(=O)c3ccc(NC(=O)N[C@@H](C)c4cccc(Cl)c4Cl)cc3)ccc2C1 [H1067, (S)-1-(1-(2,3-dichlorophenyl)ethyl)-3-(4-(((2-((5-methyl-2-oxo-1,3-dioxol-4-yl)methyl)-1,2,3,4-tetrahydroisoquinolin-6-yl)methyl)sulfonyl)phenyl)urea] | 14 | 4.5 nM | 326.2 µL/min/mg | 289 µL/min/mg | – |
| Cc1oc(=O)oc1CN1CCc2cc(NS(=O)(=O)c3ccc(NC(=O)N[C@@H](C)c4cccc(Cl)c4Cl)cc3)ccc2C1 [H1068, (S)-4-(3-(1-(2,3-dichlorophenyl)ethyl)ureido)-N-(2-((5-methyl-2-oxo-1,3-dioxol-4-yl)methyl)-1,2,3,4-tetrahydroisoquinolin-6-yl)benzenesulfonamide] | 26.3 | 8.4 nM | 199.7 µL/min/mg | 196.4 µL/min/mg | – |
| C[C@H](NC(=O)Nc1ccc(S(=O)(=O)Nc2ccc(CC(C)(C)O)cc2)cc1)c1cccc(Cl)c1Cl [H1076, (S)-4-(3-(1-(2,3-dichlorophenyl)ethyl)ureido)-N-(4-(2-hydroxy-2-methylpropyl)phenyl) benzenesulfonamide] | 515 | 57.7 nM | 91.4 µL/min/mg | 73.9 µL/min/mg | – |
| C[C@H](NC(=O)Nc1ccc(S(=O)(=O)Nc2ccc(CCO)cc2)cc1)c1cccc(Cl)c1Cl [H1094, (S)-4-(3-(1-(2,3-dichlorophenyl)ethyl)ureido)-N-(4-(2-hydroxyethyl)phenyl) benzenesulfonamide] | 488 | 118 nM | 55.1 µL/min/mg | 100.8 µL/min/mg | – |
| C[C@H](NC(=O)Nc1ccc(S(=O)(=O)Nc2cnc(N)nc2)cc1)c1cccc(Cl)c1Cl [H1108] | 422 | 117 nM | 38.7 µL/min/mg | 47.5 µL/min/mg | – |
| C[C@H](NC(=O)Nc1ccc(S(=O)(=O)Nc2ccnc(N)n2)cc1)c1cccc(Cl)c1Cl [H1125, (S)-N-(2-aminopyrimidin-4-yl)-4-(3-(1-(2,3-dichlorophenyl)ethyl)ureido) benzenesulfonamide] | 893 | 93.3 nM | 10.7 µL/min/mg | 14.9 µL/min/mg | – |
| C[C@H](NC(=O)Nc1ccc(S(=O)(=O)Nc2ccc(N)cn2)cc1)c1cccc(Cl)c1Cl.Cl [H1127, (S)-N-(5-aminopyridin-2-yl)-4-(3-(1-(2,3-dichlorophenyl)ethyl)ureido) benzenesulfonamide] | 861 | 94.7 nM | 41 µL/min/mg | 59.5 µL/min/mg | – |
| COc1ccc(C(C)NC(=O)Nc2ccc(S(=O)(=O)Cc3ccc4c(c3)CNC4)cc2)c2ccccc12 (centres unmarked) [H1154, 1-(4-((isoindolin-5-ylmethyl)sulfonyl)phenyl)-3-(1-(4-methoxynaphthalen-1-yl)ethyl)urea] | 126 | 29.8 nM and 26.8 nM | 19.2 µL/min/mg | 22.9 µL/min/mg | – |
| CC(NC(=O)Nc1ccc(S(=O)(=O)Nc2ccc3c(c2)CNC3)cc1)c1ccccc1.Cl (centres unmarked) [H1156, N-(isoindolin-5-yl)-4-(3-(1-phenylethyl)ureido) benzenesulfonamide] | 10.3 | 4.26 nM | 18.1 µL/min/mg | 12.9 µL/min/mg | – |
| CC(NC(=O)N(O)c1ccc(S(=O)(=O)Nc2ccc3c(c2)CNC3)cc1)c1cccc2ccccc12 (centres unmarked) [H1166, 4-(1-hydroxy-3-(1-(naphthalen-1-yl)ethyl)ureido)-N-(isoindolin-5-yl)benzenesulfonamide] | 9 | 7.1 nM | 19.9 µL/min/mg | 14.5 µL/min/mg | – |
| Cl.O=C(NCc1ccccc1)Nc1ccc(S(=O)(=O)Cc2ccc3c(c2)CNC3)cc1 [H1179, 1-benzyl-3-(4-((isoindolin-5-ylmethyl)sulfonyl)phenyl)urea] | 143 | 37.4 nM | 14.9 µL/min/mg | < 10 µL/min/mg | – |
| CN1Cc2ccc(CS(=O)(=O)c3ccc(NC(=O)NCc4ccccc4)cc3)cc2C1 [H1193, 1-benzyl-3-(4-(((2-methylisoindolin-5-yl)methyl)sulfonyl)phenyl)urea] | 324 | 64 nM | 49.8 µL/min/mg | 43.7 µL/min/mg | – |
| CC(NC(=O)Nc1ccc(S(=O)(=O)Cc2ccc3c(c2)CN(Cc2ccccc2)C3)cc1)c1ccccc1 (centres unmarked) [H1219, 1-(4-(((2-benzylisoindolin-5-yl)methyl)sulfonyl)phenyl)-3-(1-phenylethyl)urea] | 7.77 | 163 nM | H > 500 M > 500 R = not reported D = not reported μL/min/mg | H > 500 M > 500 R = not reported D = not reported μL/min/mg | – |
| CCN1Cc2ccc(CS(=O)(=O)c3ccc(NC(=O)NC(C)c4ccccc4)cc3)cc2C1 (centres unmarked) [H1221, 1-(4-(((2-ethylisoindolin-5-yl)methyl)sulfonyl)phenyl)-3-(1-phenylethyl)urea] | 8.1 | 38.7 nM | 111.2 µL/min/mg | 107.7 µL/min/mg | – |
| CN1Cc2ccc(CS(=O)(=O)c3ccc(NC(=O)NC(c4ccccc4)C(F)(F)F)cc3)cc2C1 (centres unmarked) [H1227, 1-(4-(((2-methylisoindolin-5-yl)methyl)sulfonyl)phenyl)-3-(2,2,2-trifluoro-1-phenylethyl)urea] | 38.4 | 175 nM | 99.4 µL/min/mg | 79.9 µL/min/mg | – |
| CCN1Cc2ccc(C(C)S(=O)(=O)c3ccc(NC(=O)NC(C)c4ccccc4)cc3)cc2C1 (centres unmarked) [H1234, 1-(4-((1-(2-ethylisoindolin-5-yl)ethyl)sulfonyl)phenyl)-3-(1-phenylethyl)urea] | 42.6 | 15.4 nM | 149.8 µL/min/mg | 122.7 µL/min/mg | – |
| CCC(NC(=O)Nc1ccc(S(=O)(=O)Cc2ccc3c(c2)CN(C)C3)cc1)c1ccccc1 (centres unmarked) [H1235, 1-(4-(((2-methylisoindolin-5-yl)methyl)sulfonyl)phenyl)-3-(1-phenylpropyl)urea] | 32 | 6.1 nM | 102.4 µL/min/mg | 87.1 µL/min/mg | – |
| C[C@@H](NC(=O)Nc1ccc(S(=O)(=O)Cc2ccc3c(c2)CN(C)C3)cc1)c1ccccc1 [H1300, (R)-1-(4-(((2-methylisoindolin-5-yl)methyl)sulfonyl)phenyl)-3-(1-phenylethyl)urea] | – | – | 124.3 µL/min/mg | 42.1 µL/min/mg | > 30000 |

— patent US10501479B2, “Benzenesulfonyl-asymmetric ureas and medical uses thereof” (HELSINN HEALTHCARE SA, priority 2016, dated 2019)
